Test results: paper PMC6600523, “Interference with Amyloid-β Nucleation by Transient Ligand Interaction” (Molecules, 2019)
Where a SMILES comes first, the peptide text is derived from it. [ ]: non-standard residue; d: D form.

Columns and labels:
Aβ42 [1] = molecular target: T1, Aβ42 (Homo sapiens, UniProt P05067); assay: Seeding experiment, ThT kinetics of seeded Aβ42; assay type: biochemical; settings: 20 mM sodium phosphate, 50 mM NaCl pH 7.4, 20 °C
T1 construct: purchased Bachem H-1368.1000
Experimental: The sample was then incubated quiescently at room temperature for 120 h. […] Samples were pipetted to a 96-well plate, with each well containing 200 μL samples. The plate was then covered with a sealing film. ThT fluorescence of all samples was recorded using the same device and parameters, as described above for ThT assays. All samples were prepared in duplicate. Final data was normalized and averaged based on the repetitions.

Aβ42 [2] = molecular target: T1, Aβ42; assay: Turbidity assay of Aβ42 samples with D3; assay type: physicochemical; settings: 40 μM Aβ42 with 4, 20, 40 and 80 μM D3; 20 mM sodium phosphate, 50 mM NaCl pH 7.4; ambient temperature; directly and after 2 h; UV-Vis
Experimental: The turbidity assay was carried out by measuring the spectra of all samples from 450 nm to 210 nm in a 1 cm quartz cuvette using a V-650 UV-Vis spectrophotometer (Jasco, Tokyo, Japan). The measurements were performed directly after preparing all samples, and repeated after 2 h of incubation at ambient temperature.

[3] = Sedimentation velocity AUC with fluorescence detection, labeled peptide alone; assay type: physicochemical; settings: sedimentation velocity AUC-FDS of FITC-D3 alone, 0.2 μM, 20 mM sodium phosphate, 50 mM NaCl pH 7.4, 0.0004% PEI
Experimental: All measurements were performed using an XL-A analytical ultracentrifuge (Beckman coulter, Brea, CA, USA). […] All samples were prepared in 20 mM sodium phosphate, 50 mM NaCl (pH 7.4) containing 0.0004% PEI (w/v). Samples were then loaded into 3-mm double-sector titanium cells (Nanolytics, Potsdam, Germany), with each sector containing a 100 μL sample. The detection system uses an excitation laser at 488 nm and an emission cut-off filter at 505 nm to collect fluorescence signals. The amplification factor was adjusted to the same value for all samples for comparability. […] Data was acquired at 20 nm radial resolution. After thorough thermal equilibration the centrifugation was carried out at 60,000 rpm (289,000× g) at 20 °C for 15 h. Carrier proteins, such as albumin and kappa casein, are usually recommended to minimize unspecific surface adsorption for fluorescence-based AUC [56]. All sedimentation profiles were subjected to the software package SEDFIT (version 15.01b) for data evaluation. The data was analyzed with the continuous distribution c(s) Lamm equation model to obtain the sedimentation coefficient distributions. Fitting parameters (Table S1) including the buffer density and viscosity were determined using Sednterp (version 20130813BETA). […]

Aβ42 [4] = molecular target: T1, Aβ42; assay: Sedimentation velocity AUC with fluorescence detection, Aβ42 and D3 mixtures; assay type: binding; settings: 0.33 μM FITC-Aβ42 with various D3 concentrations; 55 mM Tris-HCl, 50 mM NaCl pH 7.4, 0.01% Tw20; D3 concentration-dependent
Experimental: All measurements were performed using an XL-A analytical ultracentrifuge (Beckman coulter, Brea, CA, USA). […] All samples were prepared in 20 mM sodium phosphate, 50 mM NaCl (pH 7.4) containing 0.0004% PEI (w/v). Samples were then loaded into 3-mm double-sector titanium cells (Nanolytics, Potsdam, Germany), with each sector containing a 100 μL sample. The detection system uses an excitation laser at 488 nm and an emission cut-off filter at 505 nm to collect fluorescence signals. The amplification factor was adjusted to the same value for all samples for comparability. […] Data was acquired at 20 nm radial resolution. After thorough thermal equilibration the centrifugation was carried out at 60,000 rpm (289,000× g) at 20 °C for 15 h. Carrier proteins, such as albumin and kappa casein, are usually recommended to minimize unspecific surface adsorption for fluorescence-based AUC [56]. All sedimentation profiles were subjected to the software package SEDFIT (version 15.01b) for data evaluation. The data was analyzed with the continuous distribution c(s) Lamm equation model to obtain the sedimentation coefficient distributions. Fitting parameters (Table S1) including the buffer density and viscosity were determined using Sednterp (version 20130813BETA). […] Final graphs were generated using GUSSI (version 1.2.1) and sedimentation coefficients were standardized to s-values in pure water at 20 °C (s20,w).

T1 sequence (P05067 672-713 limits assumed): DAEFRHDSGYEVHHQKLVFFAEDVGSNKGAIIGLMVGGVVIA

CC(C)C[C@@H](NC(=O)[C@@H](CCCNC(=N)N)NC(=O)[C@H](NC(=O)[C@@H](CCCNC(=N)N)NC(=O)[C@H]1CCCN1C(=O)[C@H](N)CCCNC(=N)N)[C@H](C)O)C(=O)N[C@H](Cc1c[nH]cn1)C(=O)N[C@@H](C(=O)N[C@H](Cc1c[nH]cn1)C(=O)N[C@H](CCCNC(=N)N)C(=O)N[C@H](CC(N)=O)C(=O)N[C@H](CCCNC(=N)N)C(N)=O)[C@H](C)O [D3] (H-[dR][dP][dR][dT][dR][dL][dH][dT][dH][dR][dN][dR]-NH2)
Effect on ThT kinetics of Aβ42 with 1% seeds (Aβ42 [1]; 10 μM Aβ42, 1% seeds, 1 μM D3, compared with Aβ42 without D3): longer lag phase
Effect on ThT kinetics of Aβ42 with 5% seeds (Aβ42 [1]; 10 μM Aβ42, 5% seeds, 1 μM D3 (0.1-fold), slopes compared with Aβ42 with 5% seeds only): retardation of the elongation process
Turbidity (absorbance at 405 nm) of Aβ42 samples on addition of D3 (Aβ42 [2]): promotes the rapid formation of co-precipitates in a concentration-dependent manner
MST KD compared with SPR KD: 10 fold
Self-assembly or aggregation of D3 in solution [3]: does not form any self-assemblies or aggregates
s20,w of new species formed on incubating D3 with FITC-Aβ42 (Aβ42 [4]): 1.54 ± 0.11 S
